# Test results: patent publication US20250109121A1, “POTENT AND SELECTIVE SMARCA2 DEGRADING CHIMERIC MOLECULES AS CANCER THERAPEUTICS” (BOARD OF REGENTS, THE UNIVERSITY OF TEXAS SYSTEM, priority 2021, published 2025)
# Where two headings read alike, the source gives them in different places.
# Tests used:
# Format in all cases: cell-based
# mutant SMARCA4 cells = assay: Colony assay / cell proliferation, mutant SMARCA4 cell lines as a group; settings: H1693, HCC515, H322, H1299; 0.001-10 μm
# Experimental: (§1) Cell lines with wild-type SMARCA4 (HCC44, H2122, H1792 and H1975) and cell lines with mutant SMARCA4 (H1693, HCC515, H322, and H1299) were seeded in appropriate dilutions to form colonies in about 1-3 weeks. Cells were treated with ACBI1 or Compound 101 at concentrations of 0.001, 0.01, 0.1, 1, and 10 μm. Colonies were fixed with glutaraldehyde (6% v/v), stained with crystal violet (0.5% w/v) and the percent area of colonies was determined (FIGS. 3A and 3B). In cell lines with wild-type SMARCA4, inhibition of colony growth was more pronounced after treatment with ACBI1 than Compound 101 (FIG. 3A).
# SMARCA2 [1] = molecular target: T1, SMARCA2 (Homo sapiens, UniProt P51531); assay: SMARCA2 degradation in cell lines, western blot
# T1 sequence (P51531 whole entry): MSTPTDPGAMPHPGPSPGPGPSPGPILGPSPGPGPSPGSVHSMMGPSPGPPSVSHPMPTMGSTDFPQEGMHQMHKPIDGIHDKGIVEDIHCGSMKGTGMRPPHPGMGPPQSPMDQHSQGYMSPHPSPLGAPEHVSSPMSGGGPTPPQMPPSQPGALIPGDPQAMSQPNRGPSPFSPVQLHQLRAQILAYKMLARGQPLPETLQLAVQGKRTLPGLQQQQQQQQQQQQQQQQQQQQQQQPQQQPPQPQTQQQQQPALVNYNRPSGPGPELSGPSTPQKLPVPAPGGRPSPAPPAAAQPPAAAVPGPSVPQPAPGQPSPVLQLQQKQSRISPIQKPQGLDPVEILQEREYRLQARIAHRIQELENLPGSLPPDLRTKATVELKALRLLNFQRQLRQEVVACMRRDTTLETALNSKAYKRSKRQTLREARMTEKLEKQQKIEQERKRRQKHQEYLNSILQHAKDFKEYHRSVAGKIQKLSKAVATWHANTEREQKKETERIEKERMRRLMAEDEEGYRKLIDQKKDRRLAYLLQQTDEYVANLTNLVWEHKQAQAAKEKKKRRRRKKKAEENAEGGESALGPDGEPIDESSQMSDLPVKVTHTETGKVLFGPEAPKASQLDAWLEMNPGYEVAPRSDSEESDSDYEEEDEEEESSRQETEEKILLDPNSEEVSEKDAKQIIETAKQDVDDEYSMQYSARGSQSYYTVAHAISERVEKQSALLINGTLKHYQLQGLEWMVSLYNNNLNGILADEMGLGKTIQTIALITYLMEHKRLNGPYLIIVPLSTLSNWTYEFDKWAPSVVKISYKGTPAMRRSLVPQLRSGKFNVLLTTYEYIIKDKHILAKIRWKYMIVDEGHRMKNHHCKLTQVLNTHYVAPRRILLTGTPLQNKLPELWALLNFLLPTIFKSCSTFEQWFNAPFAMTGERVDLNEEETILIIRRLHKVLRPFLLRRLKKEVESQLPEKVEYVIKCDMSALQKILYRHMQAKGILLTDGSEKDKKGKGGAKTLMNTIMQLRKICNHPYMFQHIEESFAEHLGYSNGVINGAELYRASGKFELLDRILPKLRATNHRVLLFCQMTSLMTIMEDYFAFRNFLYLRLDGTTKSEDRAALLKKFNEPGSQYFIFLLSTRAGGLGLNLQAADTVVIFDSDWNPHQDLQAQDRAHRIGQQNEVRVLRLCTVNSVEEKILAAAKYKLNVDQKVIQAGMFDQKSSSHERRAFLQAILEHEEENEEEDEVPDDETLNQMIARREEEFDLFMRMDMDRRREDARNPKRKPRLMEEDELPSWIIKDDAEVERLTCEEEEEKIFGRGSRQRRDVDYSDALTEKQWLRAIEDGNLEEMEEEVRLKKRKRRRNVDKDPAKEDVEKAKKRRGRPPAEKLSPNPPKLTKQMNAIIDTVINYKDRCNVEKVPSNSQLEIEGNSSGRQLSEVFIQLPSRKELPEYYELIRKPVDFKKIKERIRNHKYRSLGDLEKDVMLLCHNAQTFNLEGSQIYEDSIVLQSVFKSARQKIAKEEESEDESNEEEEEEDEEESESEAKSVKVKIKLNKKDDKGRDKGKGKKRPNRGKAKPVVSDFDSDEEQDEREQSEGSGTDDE
# wild-type SMARCA4 cells = assay: Colony assay / cell proliferation, wild-type SMARCA4 cell lines as a group; settings: HCC44, H2122, H1792, H1975; 0.001-10 μm
# Experimental: as §1
# SMARCA2 [2] = molecular target: T1, SMARCA2; assay: SMARCA2 degradation in cell lines, western blot; settings: for SMARCA2 degradation (western blot, in words): 0.001-10 μm; for SMARCA2 expression at 100 nM (in words): H1792 and H1299 cells
# Experimental: Cell lines with wild-type SMARCA4 (H1975, H1792, H2122, and H441) were treated with DMSO or 0.001, 0.01, 0.1, 1, or 10 μm of ACBI1 (degrader of SMARCA2, SMARCA4 and polybromo-associated BAF complex PBRM1) or Compound 101 and expression levels of SMARCA2 (FIG. 2A) and SMARCA4 (FIG. 2B) were detected by western blot.
# (§2) Cell lines with wild-type SMARCA4 (H1792) and mutant SMARCA4 (H1299) were treated for 72 h or 96 h with DMSO or 0.001, 0.01, 0.1, 1, or 10 μm Compound 103 and analyzed by western blot for SMARCA2, SMARCA4, and PBRM1 expression (FIGS. 4A, 4B, and 4C).
# (§3) Cell lines with wild-type SMARCA4 (H1792) and mutant SMARCA4 (H1299) were treated for 72 h or 96 h with DMSO or 0.001, 0.01, 0.1, 1, or 10 μm Compound 102 and analyzed by western blot for SMARCA2, SMARCA4, and PBRM1 expression (FIGS. 5A, 5B, and 5C).
# (§4) Cell lines with wild-type SMARCA4 (H1975) were treated with DMSO or 0.001, 0.01, 0.1, 1, or 10 μm of Compounds 104, 105, 106, 107, or 108 and analyzed by western blot for SMARCA2, SMARCA4, and PBRM1 expression (FIGS. 6A and 6B).
# SMARCA4 [3] = molecular target: SMARCA4 (Homo sapiens, UniProt P51532); assay: SMARCA4 degradation in cell lines, western blot; settings: for DC50: read-out: SMARCA4 DC50
# Chain of SMARCA4 (Homo sapiens, UniProt P51532) (P51532 whole entry): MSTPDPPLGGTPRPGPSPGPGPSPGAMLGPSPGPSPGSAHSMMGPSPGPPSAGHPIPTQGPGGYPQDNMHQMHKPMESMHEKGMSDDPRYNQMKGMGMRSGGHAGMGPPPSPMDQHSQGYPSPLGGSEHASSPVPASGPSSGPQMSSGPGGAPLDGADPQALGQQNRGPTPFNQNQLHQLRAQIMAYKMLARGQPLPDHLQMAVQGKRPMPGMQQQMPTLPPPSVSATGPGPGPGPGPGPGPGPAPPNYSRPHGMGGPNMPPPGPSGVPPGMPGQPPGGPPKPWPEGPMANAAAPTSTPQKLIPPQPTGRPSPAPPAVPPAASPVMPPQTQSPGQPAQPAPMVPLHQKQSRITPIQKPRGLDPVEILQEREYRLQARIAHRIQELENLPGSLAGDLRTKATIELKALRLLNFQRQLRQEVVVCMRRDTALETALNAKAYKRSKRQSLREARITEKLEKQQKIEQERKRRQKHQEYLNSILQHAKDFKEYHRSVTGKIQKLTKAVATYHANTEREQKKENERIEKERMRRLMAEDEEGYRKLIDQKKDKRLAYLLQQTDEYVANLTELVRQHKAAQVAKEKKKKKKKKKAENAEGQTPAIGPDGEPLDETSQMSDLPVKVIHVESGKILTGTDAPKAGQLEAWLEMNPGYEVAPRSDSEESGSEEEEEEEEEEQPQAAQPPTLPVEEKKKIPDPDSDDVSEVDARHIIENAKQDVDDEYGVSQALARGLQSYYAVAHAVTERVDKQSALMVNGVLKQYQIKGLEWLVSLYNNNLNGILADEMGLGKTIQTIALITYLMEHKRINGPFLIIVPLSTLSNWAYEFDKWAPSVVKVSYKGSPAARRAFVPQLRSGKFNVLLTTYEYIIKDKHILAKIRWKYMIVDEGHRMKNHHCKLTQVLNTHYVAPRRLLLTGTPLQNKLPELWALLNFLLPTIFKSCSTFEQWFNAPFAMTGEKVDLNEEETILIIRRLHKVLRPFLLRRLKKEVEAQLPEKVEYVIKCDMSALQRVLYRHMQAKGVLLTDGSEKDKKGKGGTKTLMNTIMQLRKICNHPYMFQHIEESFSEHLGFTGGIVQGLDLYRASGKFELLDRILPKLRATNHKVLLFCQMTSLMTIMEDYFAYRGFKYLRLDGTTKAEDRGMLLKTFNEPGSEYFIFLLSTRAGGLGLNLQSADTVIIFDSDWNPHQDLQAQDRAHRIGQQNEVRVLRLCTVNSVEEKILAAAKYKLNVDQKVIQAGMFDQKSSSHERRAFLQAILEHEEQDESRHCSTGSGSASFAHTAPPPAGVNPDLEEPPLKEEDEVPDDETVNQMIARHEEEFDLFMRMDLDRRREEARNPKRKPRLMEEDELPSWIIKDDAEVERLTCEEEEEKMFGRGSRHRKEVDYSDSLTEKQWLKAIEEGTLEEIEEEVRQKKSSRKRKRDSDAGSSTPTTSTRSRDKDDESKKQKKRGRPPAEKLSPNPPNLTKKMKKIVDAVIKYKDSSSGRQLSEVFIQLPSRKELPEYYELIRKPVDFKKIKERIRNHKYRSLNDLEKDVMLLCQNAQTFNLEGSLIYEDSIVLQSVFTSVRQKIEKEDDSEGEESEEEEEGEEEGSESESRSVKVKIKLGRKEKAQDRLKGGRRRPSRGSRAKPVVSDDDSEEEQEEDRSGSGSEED
# PBRM1 = molecular target: T2, PBRM1 (Homo sapiens, UniProt Q86U86); assay: PBRM1 expression in cell lines, western blot; settings: H1792 and H1299 cells, 72 h or 96 h, 0.001-10 μm
# T2 construct: heterobifunctional compounds, which recruit endogenous proteins to a ubiquitin ligase for degradation; endogenous in cells; host or cells: H1792, H1299, H1975
# T2 sequence (Q86U86 whole entry): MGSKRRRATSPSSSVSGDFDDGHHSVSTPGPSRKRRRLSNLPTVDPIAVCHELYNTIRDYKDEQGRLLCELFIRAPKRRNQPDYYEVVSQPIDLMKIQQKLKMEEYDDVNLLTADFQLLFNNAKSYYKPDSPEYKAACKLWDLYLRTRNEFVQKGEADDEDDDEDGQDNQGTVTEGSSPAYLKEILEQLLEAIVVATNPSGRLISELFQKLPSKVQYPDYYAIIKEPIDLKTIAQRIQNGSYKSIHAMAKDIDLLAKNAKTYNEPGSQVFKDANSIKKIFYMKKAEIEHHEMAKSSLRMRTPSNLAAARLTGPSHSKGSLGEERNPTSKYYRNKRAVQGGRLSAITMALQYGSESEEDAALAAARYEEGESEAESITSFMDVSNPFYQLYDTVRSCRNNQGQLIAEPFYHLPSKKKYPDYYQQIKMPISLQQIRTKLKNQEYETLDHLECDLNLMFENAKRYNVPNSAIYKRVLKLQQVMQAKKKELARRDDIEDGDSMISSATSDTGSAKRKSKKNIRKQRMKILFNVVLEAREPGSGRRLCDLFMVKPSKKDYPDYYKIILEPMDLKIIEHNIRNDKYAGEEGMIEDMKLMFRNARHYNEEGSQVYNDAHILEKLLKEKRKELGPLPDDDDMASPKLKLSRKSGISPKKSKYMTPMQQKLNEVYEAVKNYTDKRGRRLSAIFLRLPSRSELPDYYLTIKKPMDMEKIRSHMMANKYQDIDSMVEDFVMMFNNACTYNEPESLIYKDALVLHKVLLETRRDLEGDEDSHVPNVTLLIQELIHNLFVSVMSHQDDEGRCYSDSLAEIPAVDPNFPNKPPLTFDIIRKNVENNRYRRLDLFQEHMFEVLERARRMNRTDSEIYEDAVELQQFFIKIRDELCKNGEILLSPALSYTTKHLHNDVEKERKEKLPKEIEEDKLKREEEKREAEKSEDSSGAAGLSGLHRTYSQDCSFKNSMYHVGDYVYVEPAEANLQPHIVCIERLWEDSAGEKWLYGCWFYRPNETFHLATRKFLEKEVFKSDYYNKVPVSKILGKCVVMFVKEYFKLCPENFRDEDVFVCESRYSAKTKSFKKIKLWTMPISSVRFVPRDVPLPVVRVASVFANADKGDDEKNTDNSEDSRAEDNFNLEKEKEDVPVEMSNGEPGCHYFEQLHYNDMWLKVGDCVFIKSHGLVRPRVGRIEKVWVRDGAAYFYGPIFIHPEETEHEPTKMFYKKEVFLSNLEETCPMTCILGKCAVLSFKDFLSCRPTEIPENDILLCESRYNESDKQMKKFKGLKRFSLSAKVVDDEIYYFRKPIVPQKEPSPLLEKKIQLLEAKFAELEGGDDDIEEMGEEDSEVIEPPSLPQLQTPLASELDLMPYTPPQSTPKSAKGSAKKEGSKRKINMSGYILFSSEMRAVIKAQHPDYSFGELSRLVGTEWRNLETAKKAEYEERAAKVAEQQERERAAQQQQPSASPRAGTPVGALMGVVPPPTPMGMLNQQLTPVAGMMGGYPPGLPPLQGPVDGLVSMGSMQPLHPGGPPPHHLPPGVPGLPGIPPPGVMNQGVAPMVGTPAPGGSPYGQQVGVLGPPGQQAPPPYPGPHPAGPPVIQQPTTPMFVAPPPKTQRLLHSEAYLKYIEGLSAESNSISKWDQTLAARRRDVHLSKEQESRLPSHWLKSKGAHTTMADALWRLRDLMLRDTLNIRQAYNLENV
# Experimental: as §2, §3, §4
# SMARCA4 [4] = assay: SMARCA4 degradation in cell lines, western blot; settings: H1792 and H1299 cells, 72 h or 96 h, 0.001-10 μm
# [5] = H441, wild-type SMARCA4 cell line
# [6] = H1792, wild-type SMARCA4 cell line
# [7] = H2122, wild-type SMARCA4 cell line
# [8] = H1975, wild-type SMARCA4 cell line
# [9] = H1792 (wild-type SMARCA4) and H1299 (mutant SMARCA4) cells, 72 h or 96 h
smiles,measurement,setting,value
"Cc1ncsc1-c1ccc(CNC(=O)[C@@H]2C[C@@H](O)CN2C(=O)[C@@H](NC(=O)C2(F)CC2)C(C)(C)C)c(OCCOc2ccc(CN3CCN(c4cc(-c5ccccc5O)nnc4N)CC3)cc2)c1 [ACBI1, reference compound]",colony growth / proliferation of mutant SMARCA4 cells (in words),mutant SMARCA4 cells,inhibited wild-type and mutant SMARCA4 cells
same,SMARCA2 Dmax (%),SMARCA2 [1]; [5],97%
same,SMARCA2 Dmax (%),SMARCA2 [1]; [6],97%
same,SMARCA2 Dmax (%),"SMARCA2 [1]; H1975, wild-type SMARCA4 cell line, maximum degradation as percentage of DMSO control",98%
same,SMARCA2 Dmax (%),SMARCA2 [1]; [7],95%
same,colony growth / proliferation of wild-type SMARCA4 cells (in words),wild-type SMARCA4 cells,inhibited wild-type and mutant SMARCA4 cells
same,DC50,SMARCA2 [2]; [5],11 nM
same,DC50,SMARCA2 [2]; [6],7 nM
same,"SMARCA2 degradation (western blot, in words)","SMARCA2 [2]; H1975, H1792, H2122, H441, increasing concentrations",degraded SMARCA2 and SMARCA4
same,DC50,"SMARCA2 [2]; H1975, wild-type SMARCA4 cell line, concentration at which 50% of the target protein is degraded",51 nM
same,DC50,SMARCA2 [2]; [7],13 nM
same,SMARCA4 Dmax (%),SMARCA4 [3]; [5],99%
same,DC50,SMARCA4 [3]; [5],36 nM
same,SMARCA4 Dmax (%),SMARCA4 [3]; [6],98%
same,DC50,SMARCA4 [3]; [6],18 nM
same,"SMARCA4 Dmax, span over cell lines","SMARCA4 [3]; H1975, H1792, H2122, H441 (Table 3)",97-99%
same,"SMARCA4 degradation (western blot, in words)","SMARCA4 [3]; H1975, H1792, H2122, H441, 0.001-10 μm, increasing concentrations",degraded SMARCA2 and SMARCA4
same,SMARCA4 Dmax (%),SMARCA4 [3]; [8],98%
same,DC50,SMARCA4 [3]; [8],98 nM
same,SMARCA4 Dmax (%),SMARCA4 [3]; [7],97%
same,DC50,SMARCA4 [3]; [7],32 nM
Nc1nnc(-c2ccccc2O)cc1N1CCN(Cc2ccc(N3CCN(CCOc4cccc5c4C(=O)N(C4CCC(=O)NC4=O)C5=O)CC3)c(F)c2)CC1 (centres unmarked) [Compound 102],"PBRM1 expression (western blot, in words)",PBRM1,did not have a significant effect on the expression of PBRM1
same,"SMARCA2 degradation (western blot, in words)",SMARCA2 [2]; [9],efficiently degraded SMARCA2
same,SMARCA2 expression at 100 nM (in words),SMARCA2 [2],significantly inhibited SMARCA2 expression
same,"SMARCA4 expression (western blot, in words)",SMARCA4 [4],reduced expression of SMARCA4
Nc1nnc(-c2ccccc2O)cc1N1CCN(Cc2ccc(N3CCC(CN4CCN(c5ccc6c(c5)C(=O)N(C5CCC(=O)NC5=O)C6=O)CC4)CC3)c(F)c2)CC1 (centres unmarked) [Compound 103],"PBRM1 expression (western blot, in words)",PBRM1,did not have a significant effect on the expression of PBRM1
same,"SMARCA2 degradation (western blot, in words)",SMARCA2 [2]; [9],efficiently degraded SMARCA2
same,SMARCA2 expression at 100 nM (in words),SMARCA2 [2],significantly inhibited SMARCA2 expression
same,"SMARCA4 expression (western blot, in words)",SMARCA4 [4],reduced expression of SMARCA4 in H1792 cells
